This note sets out measurements from patent EP4650353A1 (Shanghai Institute of Materia Medica, Chinese Academy of …, priority 2023, dated 2024).

As a reminder, the EC50 is the concentration giving half of the maximal effect.

T1 sequence (P43220 24-463): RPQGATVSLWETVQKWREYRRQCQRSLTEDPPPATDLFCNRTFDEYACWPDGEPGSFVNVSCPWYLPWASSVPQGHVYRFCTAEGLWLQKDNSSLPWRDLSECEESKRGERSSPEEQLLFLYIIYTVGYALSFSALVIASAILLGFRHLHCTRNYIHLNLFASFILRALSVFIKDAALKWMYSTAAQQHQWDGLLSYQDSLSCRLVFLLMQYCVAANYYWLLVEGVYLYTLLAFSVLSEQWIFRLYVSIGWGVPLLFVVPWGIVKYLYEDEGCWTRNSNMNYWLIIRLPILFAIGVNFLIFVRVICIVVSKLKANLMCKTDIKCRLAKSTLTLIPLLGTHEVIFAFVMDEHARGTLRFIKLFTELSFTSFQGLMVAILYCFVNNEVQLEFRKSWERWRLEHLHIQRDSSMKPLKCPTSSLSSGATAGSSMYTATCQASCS

One assay has as its target T1, human GLP-1 receptor (Homo sapiens, UniProt P43220).
T1 construct: HA (N); expressed in transfected cells
The assay is described as follows: GLP-1 receptor-mediated agonist activity: cAMP level in hGLP-1R/HEK293 cell line (HTRF). In kind it is cell-based. The note with it: cAMP levels in hGLP-1R/HEK293 cell line; Table 1; read-out: determined EC50. Background: Cyclic AMP is a second messenger, typically raised through Gs and lowered through Gi signalling.
Description: The hGLP-1R/HEK293 cells were digested, centrifuged and resuspended in culture medium (DMEM+0.2% BSA, m/v), and the cell density was adjusted to 2×10^5 cells/mL. IBMX (3-isobutyl-1-methylxanthine, final concentration of 0.5 mM) was added to the cell suspension and added to a 384-well plate at 5 µL (1×10^3 cells)/well. The compound was dissolved in DMSO to prepare a stock solution with a concentration of 10 mM. The experiment started with a concentration of 100 µM which was diluted 10 times in a series of 7 dilution points, with the 8th point being DMSO. 2 µL of the test compound of different concentrations was added to 98 µL of culture medium, shaken and mixed, 5 µL was taken and added to a 384-well plate (final concentration of the test compound was 0-100 nM, final concentration of DMSO was 1%, v/v), which was then incubated in the incubator (37°C, 5% CO2) in the dark for 30 min, then 10 µL of cAMP detection reagent (LANCE Ultra cAMP Detecion Kit, PerkinElmer, #TRF0264) was added, mixed well, and reacted at room temperature in the dark for 1 h. After the reaction was completed, the HTRF signal was read using the Envision 2104 multi-function microplate reader. All samples were tested in triplicate wells, and the ratio of the acceptor-donor excitation signal in each single well was calculated using the formula Ratio = Signal 665nM/Signal 620nM. The HTRF signal ratio and the corresponding compound concentration were analyzed and processed using GraphPad Prism 8 software, and the EC50 value of the compound was obtained by fitting the S-type dose-response curve and calculating.
For `CCOc1cc(C(=O)O)cc2c1nc(CN1CCN(c3cccc4c3OC(C)(c3ccc(Cl)cc3OC)O4)C=N1)n2C[C@@H]1CCO1` (stereo partly drawn) [Compound 85, 2-((4-(2-(4-chloro-2-methoxyphenyl)-2-methylbenzo[d][1,3]dioxol-4-yl)-5,6-dihydro-1,2,4-triazin-1(4H)-yl)methyl)-4-ethoxy-1-(((S)-oxetan-2-yl)methyl)-1H-benzo[d]imidazole-6-carboxylic acid], the EC50 worked out at 5 pM. The same measure, in the same setting: for `CCOc1cc(C(=O)O)cc2c1nc(CN1CCC(c3cccc(OCc4ccc(C(F)(F)F)cc4F)n3)CC1)n2C[C@@H]1CCO1` [Compound 28, (S)-4-ethoxy-2-((4-(6-((2-fluoro-4-(trifluoromethyl)benzyl)oxy)pyridin-2-yl)piperidin-1-yl)methyl)-1-(oxetan-2-ylmethyl)-1H-benzo[d]imidazole-6-carboxylic acid] the value was 7.4 pM; for `CCOc1cc(C(=O)O)cc2c1nc(CN1CCN(c3cccc(OCc4ccc(C(F)(F)F)cc4F)n3)C=N1)n2C[C@@H]1CCO1` [Compound 24, (S)-4-ethoxy-2-((4-(6-((2-fluoro-4-(trifluoromethyl)benzyl)oxy)pyridin-2-yl)-5,6-dihydro-1,2,4-triazin-1(4H)-yl)methyl)-1-(oxetan-2-ylmethyl)-1H-benzo[d]imidazole-6-carboxylic acid], 5.3 pM. As to `N#Cc1ccc(COc2cccc(C3CCN(Cc4nc5c(OCC6CC6)cc(C(=O)O)cc5n4C[C@@H]4CCO4)CC3)n2)c(F)c1` [Compound 5, (S)-2-((4-(6-((4-cyano-2-fluorobenzyl)oxy)pyridin-2-yl)piperidin-1-yl)methyl)-4-(cyclopropylmethoxy)-1-(oxetan-2-ylmethyl)-1H-benzo[d]imidazole-6-carboxylic acid], the EC50 was 12 pM. For `CCOc1cc(C(=O)O)cc2c1nc(CN1CCN(c3cccc4c3OC(C)(c3ccc(F)cc3F)O4)C=N1)n2C[C@@H]1CCO1` (stereo partly drawn) [Compound 86, 2-((4-(2-(2,4-difluorophenyl)-2-methylbenzo[d][1,3]dioxol-4-yl)-5,6-dihydro-1,2,4-triazin-1(4H)-yl)methyl)-4-ethoxy-1-(((S)-oxetan-2-yl)methyl)-1H-benzo[d]imidazole-6-carboxylic acid], the EC50 stood at 28.9 pM. In the case of `CCOc1cc(C(=O)O)cc2c1nc(CN1CCC(c3cccc4c3OC(C)(c3ccc(Cl)cc3OC)O4)CC1)n2C[C@@H]1CCO1` (stereo partly drawn) [Compound 58, 2-((4-(2-(4-chloro-2-methoxyphenyl)-2-methylbenzo[d][1,3]dioxol-4-yl)piperidin-1-yl)methyl)-4-ethoxy-1-(((S)-oxetan-2-yl)methyl)-1H-benzo[d]imidazole-6-carboxylic acid], the EC50 came to 2.2 pM.

Turning to `[2H]C([2H])([2H])C([2H])([2H])Oc1cc(C(=O)O)cc2c1nc(CN1CCN(c3cccc4c3O[C@](C)(c3ccc(Cl)cc3F)O4)C=N1)n2C[C@@H]1CCO1` [Compound 76-2, 2-((4-((R)-2-(4-chloro-2-fluorophenyl)-2-methylbenzo[d][1,3]dioxol-4-yl)-5,6-dihydro-1,2,4-triazin-1(4H)-yl)methyl)-4-(ethoxy-d5)-1-(((S)-oxetan-2-yl)methyl)-1H-benzo[d]imidazole-6-carboxylic acid], the EC50 was found to be 604 pM. On the same count and under the same terms, next, `CCOc1cc(C(=O)O)cc2c1nc(CN1CCN(c3cccc4c3OC(C)(c3ccc(Cl)cn3)O4)C=N1)n2C[C@@H]1CCO1` (stereo partly drawn) [Compound 69, 2-((4-(2-(5-chloropyridin-2-yl)-2-methylbenzo[d][1,3]dioxol-4-yl)-5,6-dihydro-1,2,4-triazin-1(4H)-yl)methyl)-4-ethoxy-1-(((S)-oxetan-2-yl)methyl)-1H-benzo[d]imidazole-6-carboxylic acid]: 11.1 pM; `CCOc1cc(C(=O)O)cc2c1nc(CN1CCC(c3cccnc3OCc3ccc(Cl)cc3F)CC1)n2C[C@@H]1CCO1` [Compound 32, (S)-2-((4-(2-((4-chloro-2-fluorobenzyl)oxy)pyridin-3-yl)piperidin-1-yl)methyl)-4-ethoxy-1-(oxetan-2-ylmethyl)-1H-benzo[d]imidazole-6-carboxylic acid]: 14.2 pM; `[2H]C([2H])([2H])C([2H])([2H])Oc1cc(C(=O)O)cc2c1nc(CN1CCC(c3cccc4c3OC(C)(c3ccc(Cl)cn3)O4)CC1)n2C[C@@H]1CCO1` (stereo partly drawn) [Compound 72, 2-((4-(2-(5-chloropyridin-2-yl)-2-methylbenzo[d][1,3]dioxol-4-yl)piperidin-1-yl)methyl)-4-(ethoxy-d5)-1-(((S)-oxetan-2-yl)methyl)-1H-benzo[d]imidazole-6-carboxylic acid]: 10 pM. Consider `COc1cc(C(=O)O)cc2c1nc(CN1CCC(c3ccccc3OCc3ccc(C#N)c4c3OCC4)CC1)n2C[C@@H]1CCO1` [Compound 46, (S)-2-((4-(2-((4-cyano-2,3-dihydrobenzofuran-7-yl)methoxy)phenyl)piperidin-1-yl)methyl)-4-methoxy-1-(oxetan-2-ylmethyl)-1H-benzo[d]imidazole-6-carboxylic acid], for which the EC50 was found to be 42.2 pM. Take `COc1cc(C#N)ccc1COc1ccccc1C1CCN(Cc2nc3c(OC)cc(C(=O)O)cc3n2C[C@@H]2CCO2)CC1` [Compound 44, (S)-2-((4-(2-((4-cyano-2-methoxybenzyl)oxy)phenyl)piperidin-1-yl)methyl)-4-methoxy-1-(oxetan-2-ylmethyl)-1H-benzo[d]imidazole-6-carboxylic acid]: the EC50 was determined as 9.5 pM. Still for that read-out and setting: next, `CCOc1cc(C(=O)O)cc2c1nc(CN1CCC(c3cccc4c3OC(C)(c3ccc(Cl)cn3)O4)CC1)n2C[C@@H]1CCO1` (stereo partly drawn) [Compound 39, 2-((4-(2-(5-chloropyridin-2-yl)-2-methylbenzo[d][1,3]dioxol-4-yl)piperidin-1-yl)methyl)-4-ethoxy-1-(((S)-oxetan-2-yl)methyl)-1H-benzo[d]imidazole-6-carboxylic acid]: 8 pM; `COc1cc(C(=O)O)cc2c1nc(CN1CCN(c3cccc(OCc4ccc(Cl)cc4F)n3)CC1)n2C[C@@H]1CCO1` [Compound 30, (S)-2-((4-(6-((4-chloro-2-fluorobenzyl)oxy)pyridin-2-yl)piperazin-1-yl)methyl)-4-methoxy-1-(oxetan-2-ylmethyl)-1H-benzo[d]imidazole-6-carboxylic acid]: 9.6 pM; `CCOc1cc(C(=O)O)cc2c1nc(CN1CCN(c3cccc4c3OC(C)(c3ccc(Cl)c(F)c3F)O4)C=N1)n2C[C@@H]1CCO1` (stereo partly drawn) [Compound 78, 2-((4-(2-(4-chloro-2,3-difluorophenyl)-2-methylbenzo[d][1,3]dioxol-4-yl)-5,6-dihydro-1,2,4-triazin-1(4H)-yl)methyl)-4-ethoxy-1-(((S)-oxetan-2-yl)methyl)-1H-benzo[d]imidazole-6-carboxylic acid]: 11.5 pM. Same read-out and setting: next, `CCOc1cc(C(=O)O)cc2c1nc(CN1CCC(c3cccc(OCc4ccc(C#N)cc4F)n3)CC1)n2C[C@@H]1CCO1` [Compound 2, (S)-2-((4-(6-((4-cyano-2-fluorobenzyl)oxy)pyridin-2-yl)piperidin-1-yl)methyl)-4-ethoxy-1-(oxetan-2-ylmethyl)-1H-benzo[d]imidazole-6-carboxylic acid]: 1.1 pM. As for `COc1cc(C(=O)O)cc2c1nc(CN1CCN(c3cccc4c3OC(C)(c3ccc(Cl)cc3F)O4)CC1)n2C[C@@H]1CCO1` (stereo partly drawn) [Compound 40, 2-((4-(2-(4-chloro-2-fluorophenyl)-2-methylbenzo[d][1,3]dioxol-4-yl)piperazin-1-yl)methyl)-4-methoxy-1-(((S)-oxetan-2-yl)methyl)-1H-benzo[d]imidazole-6-carboxylic acid], the EC50 is 11.1 pM.

Turning to `COc1cc(C(=O)O)cc2c1nc(CN1CCC(c3cccc4c3OC(C)(c3ccc(Cl)cn3)O4)CC1)n2C[C@@H]1CCO1` (stereo partly drawn) [Compound 38, 2-((4-(2-(5-chloropyridin-2-yl)-2-methylbenzo[d][1,3]dioxol-4-yl)piperidin-1-yl)methyl)-4-methoxy-1-(((S)-oxetan-2-yl)methyl)-1H-benzo[d]imidazole-6-carboxylic acid], the EC50 was determined as 22.9 pM. Consider `COc1cc(C(=O)O)cc2c1nc(CN1CCC(c3cccc(OCc4ccc(C(F)(F)F)cc4F)n3)CC1)n2C[C@@H]1CCO1` [Compound 27, (S)-2-((4-(6-((2-fluoro-4-(trifluoromethyl)benzyl)oxy)pyridin-2-yl)piperidin-1-yl)methyl)-4-methoxy-1-(oxetan-2-ylmethyl)-1H-benzo[d]imidazole-6-carboxylic acid], for which the EC50 was determined as 8.7 pM.

As to `COc1cc(Cl)ccc1C1(C)Oc2cccc(C3CCN(Cc4nc5c(OC)cc(C(=O)O)cc5n4C[C@@H]4CCO4)CC3)c2O1` (stereo partly drawn) [Compound 57, 2-((4-(2-(4-chloro-2-methoxyphenyl)-2-methylbenzo[d][1,3]dioxol-4-yl)piperidin-1-yl)methyl)-4-methoxy-1-(((S)-oxetan-2-yl)methyl)-1H-benzo[d]imidazole-6-carboxylic acid], the EC50 was determined as 2.8 pM.

As for `COc1cc(C(=O)O)cc2c1nc(CN1CCC(c3cccc(OCc4ccc(C#N)cc4F)n3)CC1)n2C[C@@H]1CCO1` [Compound 1, (S)-2-((4-(6-((4-cyano-2-fluorobenzyl)oxy)pyridin-2-yl)piperidin-1-yl)methyl)-4-methoxy-1-(oxetan-2-ylmethyl)-1H-benzo[d]imidazole-6-carboxylic acid], the EC50 worked out at 4.8 pM. Take `CCOc1cc(C(=O)O)cc2c1nc(CN1CCN(c3cccc4c3OC(C)(c3ccc(Cl)cc3F)O4)C=N1)n2C[C@@H]1CCO1` (stereo partly drawn) [Compound 68, 2-((4-(2-(4-chloro-2-fluorophenyl)-2-methylbenzo[d][1,3]dioxol-4-yl)-5,6-dihydro-1,2,4-triazin-1(4H)-yl)methyl)-4-ethoxy-1-(((S)-oxetan-2-yl)methyl)-1H-benzo[d]imidazole-6-carboxylic acid]: the EC50 was found to be 6.4 pM.

The assay is the same for the next values; noted with them: cAMP levels of the hGLP-1R/HEK293 cell line; Table 2, comparison with reference compounds; read-out: EC50.
In the case of `N#Cc1ccc(COc2cccc(C3CCN(Cc4nc5c(F)cc(C(=O)O)cc5n4C[C@@H]4CCO4)CC3)n2)c(F)c1` [WO2022109182 , Example 21, reference compound], the EC50 was 26.1 pM. Still for that read-out and setting: next, `N#Cc1ccc(COc2cccc(C3CCN(Cc4nc5ccc(C(=O)O)cc5n4C[C@@H]4CCO4)CC3)n2)c2occc12` [CN113480534 , Compound 3, reference compound]: 12.7 pM.
